Assay results published in patent US20090068646A1, “METHODS AND KITS FOR DETECTING MUTATIONS” (PROMEGA CORPORATION, priority 2004, published 2009).
Read-outs that look alike come from different tables or passages of the source.

Tests used:
Format in all cases: in vivo, C75BL/6 mice
mtDNA = conditions: old age paraquat-treated group, three mice
Description: (§1) Treatment of mice used in paraquat studies. […] mice were housed and inbred at the University of Wisconsin, with an average life span 30 months. Four groups of three mice were included in the study: 5-month old mice (young control or YC); 5-month old mice treated with paraquat; 24-month old mice (old age); and 24-month old mice treated with paraquat. Paraquat-treated animals received a single intraperitoneal injection of 50 mg/kg body weight dissolved in PBS 24 hours after their last feeding. Each mouse was sacrificed by cervical dislocation.
(§2) Tissue Preparation, DNA Extraction and Quantification. The entire liver from each mouse was dissected, washed with PBS, placed in a 1.5 ml Ependorf tube, snap frozen in liquid nitrogen, and stored at −80° C. DNA was prepared from the mouse liver tissue by using the DNA-IQ Tissue and Hair Extraction Kit (Promega Corporation, Madison, Wis.) and was quantified using the PicoGreen dsDNA Quantitative Kit (Molecular Probes, Eugene, Oreg.) following manufacturers protocols.
mtDNA Deletion Detection. Based on the mouse mtDNA sequence, four fluorescence labeled primer pairs were designed to detect both wildtype sequences and mtDNA deletions.
PCR Conditions. […]
Identification of PCR Products. […] Data was analyzed with the GeneScan and Genotyper computer software packages (Applied Biosystems).

mononucleotide repeats [1] = conditions: 50 mg/kg intraperitoneal, liver DNA
Description: as §1, §2
Detection of Mutations in Microsatellites using small pool PCR. […] The stability of four short mononucleotide repeats (mBAT-24, mBAT-26, mBat-30, mBAT-37) and three extended mononucleotide repeats (mBAT-59, mBAT-64 and mBAT-67) were evaluated.
SP-PCR was performed for mutation analysis using 1-2 copies of genomic DNA (6-12 pg). PCR cycles and conditions are the same as described above except that the annealing temperature was 58° C.
Identification of PCR Products. Separation and detection of amplified fragments was performed on an ABI PRISM® 3100 Genetic Analyzer following the manufacturer's protocol (Applied Biosystems, Foster City, Calif.). Data was analyzed with the GeneScan and Genotyper computer software packages (Applied Biosystems).
Statistical Analysis. Statistical analysis was done using the statistical Package Sigma Stat version 3, where P value was determined by using one-way ANOVA for each specific group, using Holm-Sidak method did comparisons between the groups.

mononucleotide repeats [2] = conditions: for Mutation Freq / # Mutants: 50 mg/kg intraperitoneal, liver DNA
[3] = marker mBat-24, Old w/Paraquat (24-month old mice)
[4] = marker mBat-26, Young w/Paraquat (5-month old mice)
[5] = marker mBat-30, Old w/Paraquat (24-month old mice)
[6] = marker mBat-30, Young w/Paraquat (5-month old mice)
[7] = marker mBat-59, Old w/Paraquat (24-month old mice)
[8] = marker mBat-64, Young w/Paraquat (5-month old mice)
[9] = marker mBat-67, Young w/Paraquat (5-month old mice)
[10] = marker mBat-24, Young w/Paraquat (5-month old mice)
[11] = marker mBat-26, Old w/Paraquat (24-month old mice)
[12] = marker mBat-37, Old w/Paraquat (24-month old mice)
[13] = marker mBat-37, Young w/Paraquat (5-month old mice)
[14] = marker mBat-49, Old w/Paraquat (24-month old mice)
[15] = marker mBat-51a, Old w/Paraquat (24-month old mice)
[16] = marker mBat-51b, Old w/Paraquat (24-month old mice)
[17] = marker mBat-52, Old w/Paraquat (24-month old mice)
[18] = marker mBat-59, Young w/Paraquat (5-month old mice)
[19] = marker mBat-61a, Old w/Paraquat (24-month old mice)
[20] = marker mBat-64, Old w/Paraquat (24-month old mice)
[21] = marker mBat-66, Old w/Paraquat (24-month old mice)
[22] = marker mBat-66, Young w/Paraquat (5-month old mice)
[23] = marker mBat-67, Old w/Paraquat (24-month old mice)
[24] = paraquat-treated old age group, loci mBAT-59, mBAT-64, mBAT-66 or mBAT-67 combined

C[n+]1ccc(-c2cc[n+](C)cc2)cc1 [Paraquat]
mice showing Δ-mtDNA4977 (mtDNA): All three
# Mutants (mononucleotide repeats [1]; [3]): 0
Mutation Freq (mononucleotide repeats [1]; [4]): 0.000
Mutation Freq (mononucleotide repeats [1]; [5]): 0.000
# Mutants (mononucleotide repeats [1]; [6]): 0
# Mutants (mononucleotide repeats [1]; [7]): 6
Mutation Freq (mononucleotide repeats [1]; [8]): 0
Mutation Freq (mononucleotide repeats [1]; [9]): 0
Mutation Freq (mononucleotide repeats [2]; [3]): 0.000
# Mutants (mononucleotide repeats [2]; [10]): 1
Mutation Freq (mononucleotide repeats [2]; [10]): 0.002
# Mutants (mononucleotide repeats [2]; [11]): 0
Mutation Freq (mononucleotide repeats [2]; [11]): 0.000
# Mutants (mononucleotide repeats [2]; [4]): 0
# Mutants (mononucleotide repeats [2]; [5]): 0
Mutation Freq (mononucleotide repeats [2]; [6]): 0.000
# Mutants (mononucleotide repeats [2]; [12]): 0
Mutation Freq (mononucleotide repeats [2]; [12]): 0.000
# Mutants (mononucleotide repeats [2]; [13]): 1
Mutation Freq (mononucleotide repeats [2]; [13]): 0.001
# Mutants (mononucleotide repeats [2]; [14]): 0
Mutation Freq (mononucleotide repeats [2]; [14]): 0.000
# Mutants (mononucleotide repeats [2]; [15]): 0
Mutation Freq (mononucleotide repeats [2]; [15]): 0.000
# Mutants (mononucleotide repeats [2]; [16]): 0
Mutation Freq (mononucleotide repeats [2]; [16]): 0.000
# Mutants (mononucleotide repeats [2]; [17]): 0
Mutation Freq (mononucleotide repeats [2]; [17]): 0.000
Mutation Freq (mononucleotide repeats [2]; [7]): 0.013
# Mutants (mononucleotide repeats [2]; [18]): 4
Mutation Freq (mononucleotide repeats [2]; [18]): 0
# Mutants (mononucleotide repeats [2]; [19]): 2
Mutation Freq (mononucleotide repeats [2]; [19]): 0.005
# Mutants (mononucleotide repeats [2]; [20]): 8
Mutation Freq (mononucleotide repeats [2]; [20]): 0.019
# Mutants (mononucleotide repeats [2]; [8]): 1
# Mutants (mononucleotide repeats [2]; [21]): 8
Mutation Freq (mononucleotide repeats [2]; [21]): 0.018
# Mutants (mononucleotide repeats [2]; [22]): 3
Mutation Freq (mononucleotide repeats [2]; [22]): 0
# Mutants (mononucleotide repeats [2]; [23]): 20
Mutation Freq (mononucleotide repeats [2]; [23]): 0.051
# Mutants (mononucleotide repeats [2]; [9]): 1
mutations detected in loci mBAT-24, mBAT-26, mBat-30, or mBAT-37 (mononucleotide repeats [2]; old paraquat-treated group, short mononucleotide repeats combined): no mutations out of 1608 alleles
mutant alleles / alleles assayed (mononucleotide repeats [2]; [24]): 25/1649
mutations in mononucleotide repeat alleles assayed (mononucleotide repeats [2]; [24]): over 1.8%
